Assay results taken from ChEMBL document CHEMBL2074085, “P-glycoprotein (P-gp/MDR1)-mediated efflux of sex-steroid hormones and modulation of P-gp expression in vitro” (Pharm Res, 2004).

Target: ATP-dependent translocase ABCB1 (Homo sapiens, UniProt P08183)
Experiment: TP_TRANSPORTER: transepithelial transport in MDR1-expressing MDCK cells
Type: functional, cell-based
Conditions: dog

Chain of ATP-dependent translocase ABCB1 (P08183 whole entry): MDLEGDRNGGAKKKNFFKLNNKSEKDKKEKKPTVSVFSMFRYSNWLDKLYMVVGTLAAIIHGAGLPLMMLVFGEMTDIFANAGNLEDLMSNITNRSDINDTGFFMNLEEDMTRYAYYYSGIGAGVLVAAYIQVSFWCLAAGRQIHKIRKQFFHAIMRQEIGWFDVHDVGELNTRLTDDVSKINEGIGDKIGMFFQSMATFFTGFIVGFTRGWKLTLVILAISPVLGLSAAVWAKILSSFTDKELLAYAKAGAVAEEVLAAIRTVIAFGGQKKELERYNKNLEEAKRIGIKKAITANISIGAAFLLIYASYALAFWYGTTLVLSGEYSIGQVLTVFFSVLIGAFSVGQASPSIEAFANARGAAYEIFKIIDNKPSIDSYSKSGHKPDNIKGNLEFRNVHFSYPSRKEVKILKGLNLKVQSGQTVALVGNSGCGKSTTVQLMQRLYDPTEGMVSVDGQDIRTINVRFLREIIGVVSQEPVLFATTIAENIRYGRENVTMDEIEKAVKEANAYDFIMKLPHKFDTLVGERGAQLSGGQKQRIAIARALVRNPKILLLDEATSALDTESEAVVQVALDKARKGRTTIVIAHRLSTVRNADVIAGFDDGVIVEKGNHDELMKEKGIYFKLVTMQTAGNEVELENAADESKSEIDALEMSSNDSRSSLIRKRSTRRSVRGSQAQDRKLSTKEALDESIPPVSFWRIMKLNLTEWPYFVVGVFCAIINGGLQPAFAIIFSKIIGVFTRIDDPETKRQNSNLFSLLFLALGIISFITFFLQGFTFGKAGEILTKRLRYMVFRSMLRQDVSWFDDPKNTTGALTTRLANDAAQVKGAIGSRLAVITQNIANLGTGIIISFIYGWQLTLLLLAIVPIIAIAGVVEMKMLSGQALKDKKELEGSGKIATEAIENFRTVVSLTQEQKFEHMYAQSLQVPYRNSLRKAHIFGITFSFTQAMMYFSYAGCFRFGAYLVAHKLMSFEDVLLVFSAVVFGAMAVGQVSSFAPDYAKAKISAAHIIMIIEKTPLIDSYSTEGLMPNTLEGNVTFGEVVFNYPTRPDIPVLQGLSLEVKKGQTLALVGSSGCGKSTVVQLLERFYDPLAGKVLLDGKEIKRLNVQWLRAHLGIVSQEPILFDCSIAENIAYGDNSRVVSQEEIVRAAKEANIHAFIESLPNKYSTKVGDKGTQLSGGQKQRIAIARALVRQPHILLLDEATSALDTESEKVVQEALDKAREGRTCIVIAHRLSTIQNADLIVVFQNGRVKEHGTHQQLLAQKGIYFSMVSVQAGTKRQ

Activity	SMILES
substrate [+]	C#C[C@]1(O)CC[C@H]2[C@@H]3CCc4cc(O)ccc4[C@H]3CC[C@@]21C [ETHINYL ESTRADIOL]
is not a substrate [-]	C#C[C@]1(O)CC[C@H]2[C@@H]3CCC4=CC(=O)CC[C@@H]4[C@H]3CC[C@@]21C [NORETHINDRONE]
is not a substrate [-]	C[C@]12CC[C@@H]3c4ccc(O)cc4CC[C@H]3[C@@H]1CC[C@@H]2O [ESTRADIOL]

More lines, now with the values behind:

SMILES	Activity
C[C@]12CC[C@@H]3c4ccc(O)cc4CC[C@H]3[C@@H]1CCC2=O [ESTRONE]	substrate [+]
CC(=O)[C@H]1CC[C@H]2[C@@H]3CCC4=CC(=O)CC[C@]4(C)[C@H]3CC[C@]12C [PROGESTERONE]	is not a substrate [-]
C[C@]12CC[C@@H]3c4ccc(O)cc4CC[C@H]3[C@@H]1C[C@@H](O)[C@@H]2O [ESTRIOL]	substrate [+]
